Measured values from patent publication US9174991B2, “Crystalline form of pemetrexed disodium” (Azad Pharmaceutical Ingredients AG, priority 2009, dated 2015).
Structures can show the parent of a compound that is named as a salt. Where two headings read alike, the source gives them in different places.

How the values were obtained:
[1] = starting material, before storage
Description: HPLC analysis was done on an Agilent 1100 system equipped with DAD detector using a Zorbax SB-Phenyl column (150×4.6 mm, 3 μm). Measurements were done at 230 nm wavelengths at 25° C. using a flow of 1.0 mL/min and 8 min post-run time. As mobile phase water containing 0.03% TFA and acetonitrile containing 0.025% TFA were used, solvents were HPLC grade. Sample preparation: 10 mg sample in 25 mL water:ACN=1:1, 5 uL injection. Retention time Pemetrexed Disodium: 10.3 min.
PXRD: Routine PXRD measurements were carried out on a Bruker AXS D8Advance diffractometer equipped with CuKα source with CuKβ filter and a VANTEC detector (Ser. No.: 202964). Measurement parameters: 3° 2theta to 39.9° 2theta, step time: 2s, step size: 0.022°, T=25° C., X-ray generator: 35 kV/40 mA.

[2] = 70° C., 5 mbar; for change in HPLC-purity upon vacuum drying (in words): up to 9 d
Description: (§1) To investigate the stability of the different forms of Pemetrexed Disodium a stability test concerning storage at different relative humidity, storage in the presence of light and stability under drying conditions was carried out.
Four samples were stored at 70° 5 mbar in laboratory vacuum oven. IPC were taken after 2 d, 9 d
(§2) HPLC analysis was done on an Agilent 1100 system equipped with DAD detector using a Zorbax SB-Phenyl column (150×4.6 mm, 3 μm). Measurements were done at 230 nm wavelengths at 25° C. using a flow of 1.0 mL/min and 8 min post-run time. […] Sample preparation: 10 mg sample in 25 mL water:ACN=1:1, 5 uL injection.

[3] = for H2O (KFT) / HPLC-purity (10.5 min) / PXRD / HPLC-purity: dark, air; for change in HPLC purity in any of the samples (in words): all relative humidities tested (5% to 70%)
[4] = for change in HPLC purity in the presence of light (in words) / change in color in the presence of light (in words): text says after 16 d
Description: as §1
The samples were stored in double PE plastic bags and exposed to daylight IT=20° C. to 25° C. IPCs were taken after 15 d.
as §2

[5] = Barnett et al., Organic Process Research & Development, 1999, 3, 184-188; cited from earlier work
[6] = 5% to 12% relative humidity, 2 d, measured 11.7% (Form A 5.8%), 23° C.
[7] = 5% to 12% relative humidity, 5 d, measured 9.5% (Form A 5.3%), 24° C.
[8] = 5% to 12% relative humidity, 9 d, measured 9% (Form A 6%), 24° C.
[9] = 5% to 12% relative humidity, 16 d, measured 8.5% (Form A 5.8%), 24° C.
[10] = 27% to 33% relative humidity, 2 d, measured 29.8% (Form A 28%), 23° C.
[11] = 27% to 33% relative humidity, 5 d, measured 29% (Form A 27%), 24° C.
[12] = 27% to 33% relative humidity, 9 d, measured 31% (Form A 30%), 24° C.
[13] = 27% to 33% relative humidity, 16 d, measured 30.4% (Form A 28.7%), 24° C.
[14] = 39% to 50% relative humidity, 2 d, measured 41.1% (Form A 39%), 23° C.
[15] = 39% to 50% relative humidity, 5 d, measured 42.8% (Form A 38.6%), 24° C.
[16] = 39% to 50% relative humidity, 9 d, measured 48% (Form A 47%), 24° C.
[17] = 39% to 50% relative humidity, 16 d, measured 47.3% (Form A 46.4%), 24° C.
[18] = 60% to 70% relative humidity, 2 d, measured 61%, 22° C. (Form A 54%, 23° C)
[19] = 60% to 70% relative humidity, 5 d, measured 63% (Form A 57%), 24° C.
[20] = 60% to 70% relative humidity, 9 d, measured 69% (Form A 68%), 24° C.
[21] = 60% to 70% relative humidity, 16 d, measured 66.9% (Form A 67.2%), 24° C.
[22] = daylight, listed as Pemetrexed Disodium Form IV
[23] = double PE plastic bags, daylight, 20° C. to 25° C., 15 d
[24] = 2 d, listed as Pemetrexed Disodium Heptahydrate

With `Nc1nc(O)c2c(CCc3ccc(C(=O)N[C@@H](CCC(=O)O)C(=O)O)cc3)c[nH]c2n1` [Form IV, disodium N-[4-[2-(2-amino-4,7-dihydro-4-oxo-3H-pyrrolo[2,3-d]-pyrimidin-5-yl)ethyl]benzoyl]-L-glutamic acid salt] the “HPLC-purity (10.5 min)” value [1] was 99.85%, the PXRD [1] was “Form IV” and the “HPLC-purity (10.5 min)” value ([2]; 2 d) was 99.70%. For the same molecule, the PXRD ([2]; 2 d) was “Form IV”, the “HPLC-purity (10.5 min)” value ([2]; 9 d) was 99.80% and the “change in water content upon vacuum drying (in words)” value ([2]; after 9 d) was “no significant change”. For the same molecule, the “change in HPLC-purity upon vacuum drying (in words)” value ([2]; listed as Pemetrexed Disodium Form IV) was “no significant change”, the “change in water content (in words)” value ([3]; 5% to 12% rel. humidity (for Form A and Form IV: 7% to 12%), up to 16 d, listed as Pemetrexed Disodium Form IV) was “does not show significant change” and the “H2O (KFT)” value [3, 6] was 1.0%. For the same molecule, the “HPLC-purity (10.5 min)” value [3, 6] was 99.66%, the PXRD [3, 6] was “Form IV” and the “HPLC-purity (10.5 min)” value [3, 7] was 99.60%. The PXRD [3, 7] was “Form IV”, the “HPLC-purity (10.5 min)” value [3, 8] was 99.83% and the PXRD [3, 8] was “Form IV”. The HPLC-purity [3, 9] was 99.88%, the PXRD [3, 9] was “Form IV” and the “change in water content (in words)” value ([3]; 27% to 33% rel. humidity, up to 16 d, listed as Pemetrexed Disodium Form IV) was “does not show significant change”. For the same molecule, the HPLC-purity [3, 10] was 99.81%, the PXRD [3, 10] was “Form IV” and the HPLC-purity [3, 11] was 99.73%. The PXRD [3, 11] was “Form IV”, the HPLC-purity [3, 12] was 99.82% and the PXRD [3, 12] was “Form IV”. For the same molecule, the HPLC-purity [3, 13] was 99.86%, the PXRD [3, 13] was “Form D” and the HPLC-purity [3, 14] was 99.84%. For the same molecule, the PXRD [3, 14] was “Form IV”, the HPLC-purity [3, 15] was 99.78% and the PXRD [3, 15] was “Form IV”. For the same molecule, the HPLC-purity [3, 16] was 99.76%, the PXRD [3, 16] was “Form IV” and the PXRD ([3]; 39% to 50% relative humidity, 9 d, measured 48% (Form A 47%), 24° C., listed as Pemetrexed Disodium Form IV) was “without significant change”. For the same molecule, the HPLC-purity [3, 17] was 99.81%, the PXRD ([3]; 39% to 50% relative humidity, 16 d, measured 47.3% (Form A 46.4%), 24° C., listed as Pemetrexed Disodium Form IV) was “traces of Pemetrexed Disodium Heptahydrate” and the “change in water content (in words)” value ([3]; 40% to 50% rel. humidity, up to 16 d, listed as Pemetrexed Disodium Form IV) was “slight increase”. For the same molecule, the “change in water content (in words)” value ([3]; 60% to 70% rel. humidity, after 2 d) was “significant increase”, the HPLC-purity [3, 18] was 99.83% and the PXRD ([3]; 60% to 70% relative humidity, 2 d, measured 61%, 22° C. (Form A 54%, 23° C), listed as Pemetrexed Disodium Form IV) was “partial transformation to Pemetrexed Disodium Heptahydrate”. For the same molecule, the HPLC-purity [3, 19] was 99.75%, the PXRD [3, 19] was “Heptahydrate” and the PXRD ([3]; 60% to 70% relative humidity, 5 d, measured 63% (Form A 57%), 24° C., listed as Pemetrexed Disodium Form IV) was “Transformation to Pemetrexed Disodium Heptahydrate is complete”. For the same molecule, the HPLC-purity [3, 20] was 99.85%, the PXRD [3, 20] was “Heptahydrate” and the HPLC-purity [3, 21] was 99.81%. For the same molecule, the PXRD [3, 21] was “Heptahydrate”, the “change in HPLC purity in any of the samples (in words)” value ([3]; up to 16 d) was “No significant change” and the HPLC-purity ([4]; daylight study, Start) was 99.83%. For the same molecule, the “change in HPLC purity in the presence of light (in words)” value [4, 22] was “slight decrease”, the “change in color in the presence of light (in words)” value [4, 22] was “without significant change” and the HPLC-purity [4, 23] was 99.44%.

For `Nc1nc(O)c2c(CCc3ccc(C(=O)N[C@@H](CCC(=O)O)C(=O)O)cc3)c[nH]c2n1` [Heptahydrate, disodium N-[4-[2-(2-amino-4,7-dihydro-4-oxo-3H-pyrrolo[2,3-d]-pyrimidin-5-yl)ethyl]benzoyl]-L-glutamic acid salt], the “HPLC-purity (10.5 min)” value [1] was 99.90%, the “HPLC-purity (10.5 min)” value ([2]; 2 d) was 99.86% and the PXRD ([2]; 2 d) was 2.5 hydrate. The “H2O (KFT)” value [2, 24] was 8.4%, the PXRD [2, 24] was “only 2.5 hydrate” and the “HPLC-purity (10.5 min)” value ([2]; 9 d) was 99.80%. For the same molecule, the “change in HPLC-purity upon vacuum drying (in words)” value ([2]; listed as Pemetrexed Disodium Heptahydrate) was “No significant change”, the “H2O (KFT)” value [3, 6] was 19.7% and the “HPLC-purity (10.5 min)” value [3, 6] was 99.70%. For the same molecule, the “HPLC-purity (10.5 min)” value [3, 7] was 99.73%, the “HPLC-purity (10.5 min)” value [3, 8] was 99.86% and the HPLC-purity [3, 9] was 99.88%. The PXRD ([3]; 5% to 12% relative humidity, 16 d, measured 8.5% (Form A 5.8%), 24° C., listed as Pemetrexed Disodium Heptahydrate) was “almost complete transformation to Pemetrexed Disodium 2.5 hydrate”, the HPLC-purity [3, 10] was 99.74% and the HPLC-purity [3, 11] was 99.62%. For the same molecule, the HPLC-purity [3, 12] was 99.84%, the HPLC-purity [3, 13] was 99.91% and the PXRD [3, 13] was “Heptahydrate”. The HPLC-purity [3, 14] was 99.84%, the HPLC-purity [3, 15] was 99.78% and the PXRD [3, 15] was “Heptahydrate”. The HPLC-purity [3, 16] was 99.81%, the PXRD [3, 16] was “Heptahydrate” and the HPLC-purity [3, 17] was 99.91%. The PXRD [3, 17] was “Heptahydrate”, the HPLC-purity [3, 18] was 99.63% and the HPLC-purity [3, 19] was 99.81%. For the same molecule, the PXRD [3, 19] was “Heptahydrate”, the HPLC-purity [3, 20] was 99.81% and the PXRD [3, 20] was “Heptahydrate”. For the same molecule, the HPLC-purity [3, 21] was 99.90%, the PXRD [3, 21] was “Heptahydrate” and the “change in HPLC purity in any of the samples (in words)” value ([3]; up to 16 d) was “No significant change”. The HPLC-purity ([4]; daylight study, Start) was 99.63%, the “change in HPLC purity in the presence of light (in words)” value ([4]; daylight) was “do not show significant changes” and the “change in color in the presence of light (in words)” value ([4]; daylight) was “do not show significant changes”. The HPLC-purity [4, 23] was 99.65%.

In the case of `Nc1nc(O)c2c(CCc3ccc(C(=O)N[C@@H](CCC(=O)O)C(=O)O)cc3)c[nH]c2n1` [disodium salt II, disodium N-[4-[2-(2-amino-4,7-dihydro-4-oxo-3H-pyrrolo[2,3-d]-pyrimidin-5-yl)ethyl]benzoyl]-L-glutamic acid salt], the “hygroscopicity (in words)” value [5] is given as “hygroscopic solid”.
